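All cell lines were grown in 96-well plates and treated with compound for 48 hours. GI50 is the concentration that inhibits growth by half. TGI is the concentration that stops growth completely.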

Some test systems named below: MALME-3M melanoma; MOLT-4 leukemia; OVCAR-3 ovarian; OVCAR-5 ovarian; SF-539 CNS; SK-MEL-28 melanoma; TK-10 renal; U251 CNS; IGROV1 ovarian.
Common to all, as to assay: NCI tumour cell line growth inhibition, 48 h

As to `OCC(O)C(OC1OC(CO)C(O)C(O)C1O)c1nn(-c2ccccc2)c2nc3cc(Cl)c(Cl)cc3cc12` (stereo not given), the TGI with MALME-3M melanoma, in the experiment on MOLT-4 leukemia, with OVCAR-3 ovarian, in the experiment with OVCAR-5 ovarian, with SF-539 CNS and in the experiment with SK-MEL-28 melanoma was greater than 100 µM each time. For the same molecule, the TGI with TK-10 renal and in the experiment on U251 CNS was greater than 100 µM in each case.
`Cc1ccc(S(=O)(=O)NNC(=O)c2sc(-c3nc(C)c(C(=O)NNS(=O)(=O)c4ccc(C)cc4)s3)nc2C)cc1`: the TGI in the experiment with IGROV1 ovarian, in the experiment on MALME-3M melanoma, in the experiment with MOLT-4 leukemia, in the experiment with OVCAR-3 ovarian, with OVCAR-5 ovarian and in the experiment on SF-539 CNS was greater than 100 µM each time. Besides, the TGI in the experiment on SK-MEL-28 melanoma, with TK-10 renal and in the experiment with U251 CNS was greater than 100 µM throughout.
Turning to `O=C(O)C12C3C4C1C1C2C3C1(Br)C41OCCO1` (stereo not given), the TGI with IGROV1 ovarian, in the experiment with MALME-3M melanoma, in the experiment on MOLT-4 leukemia, in the experiment with OVCAR-3 ovarian, in the experiment with OVCAR-5 ovarian and in the experiment with SF-539 CNS was greater than 100 µM in each case. Besides, the TGI in the experiment with SK-MEL-28 melanoma, in the experiment on TK-10 renal and in the experiment with U251 CNS was greater than 100 µM each time.
As to `NNC(=O)CCC(=O)Nc1cc(Cl)c(Cl)cc1Cl`, the TGI in the experiment with IGROV1 ovarian, in the experiment with MALME-3M melanoma, in the experiment on MOLT-4 leukemia, in the experiment with OVCAR-3 ovarian, in the experiment with OVCAR-5 ovarian and with SF-539 CNS was greater than 100 µM each time. Also, the TGI in the experiment with SK-MEL-28 melanoma, with TK-10 renal and in the experiment with U251 CNS was greater than 100 µM throughout.
Turning to `COc1ccc(C2=NN(C(=O)COc3ccc(Cl)cc3)C(O)(c3ccc(Cl)cc3)C2)cc1` (stereo not given), the TGI in the experiment with IGROV1 ovarian, in the experiment on MALME-3M melanoma, in the experiment on MOLT-4 leukemia, in the experiment with OVCAR-3 ovarian, with OVCAR-5 ovarian and in the experiment on SF-539 CNS was greater than 100 µM in each case. In addition, the TGI in the experiment with SK-MEL-28 melanoma, with TK-10 renal and in the experiment on U251 CNS was greater than 100 µM each time.
In the case of `N#C/C(=C1\NN=C(N)C(c2ccc(Cl)cc2)=C1O)c1ccc(Cl)cc1`, the TGI in the experiment with IGROV1 ovarian, with MALME-3M melanoma, in the experiment on MOLT-4 leukemia, in the experiment with OVCAR-3 ovarian, in the experiment with OVCAR-5 ovarian and in the experiment with SF-539 CNS was greater than 100 µM each time. The TGI in the experiment with SK-MEL-28 melanoma, in the experiment on TK-10 renal and in the experiment on U251 CNS was greater than 100 µM throughout.
As for `COC(=O)C1C2C=CC(C2)C1(C(=O)OC)S(=O)CC12CCC(CC1O)C2(C)C` (stereo not given), the TGI in the experiment on IGROV1 ovarian, with MALME-3M melanoma, in the experiment on MOLT-4 leukemia, with OVCAR-3 ovarian, in the experiment on OVCAR-5 ovarian and in the experiment with SF-539 CNS was greater than 100 µM each time. Besides, the TGI in the experiment with SK-MEL-28 melanoma, in the experiment on TK-10 renal and in the experiment with U251 CNS was greater than 100 µM each time.
In the case of `CCCCCCCCC(=O)N(C)C1C2CN3CCC(O2)C13` (stereo not given), the TGI in the experiment with IGROV1 ovarian, in the experiment with MALME-3M melanoma, in the experiment on MOLT-4 leukemia, in the experiment with OVCAR-3 ovarian, with OVCAR-5 ovarian and in the experiment on SF-539 CNS was greater than 100 µM each time. Further, the TGI in the experiment with SK-MEL-28 melanoma, with TK-10 renal and with U251 CNS was greater than 100 µM each time.
Consider `[C-]#[O+].[C-]#[O+].[C-]#[O+].[C-]#[O+].[Ir].[Ir].[O-]c1ccc2ccccc2c1C=Nc1ccc(N=Cc2c([O-])ccc3ccccc23)cc1`, for which the GI50 in the experiment on IGROV1 ovarian is greater than 100 µM; in the experiment with MALME-3M melanoma it was greater than 100 µM; in the experiment with MOLT-4 leukemia it was 37.1 µM; in the experiment on OVCAR-3 ovarian it was greater than 100 µM; in the experiment with OVCAR-5 ovarian it was greater than 100 µM; in the experiment on SF-539 CNS, greater than 100 µM. In addition, the GI50 in the experiment with TK-10 renal and in the experiment on U251 CNS was greater than 100 µM throughout. The TGI in the experiment with IGROV1 ovarian, in the experiment on MALME-3M melanoma, with MOLT-4 leukemia, in the experiment with OVCAR-3 ovarian, with OVCAR-5 ovarian and in the experiment on SF-539 CNS was greater than 100 µM throughout. Moreover, the TGI with TK-10 renal and in the experiment with U251 CNS was greater than 100 µM throughout.
`C[C@H]1[C@H](C)CC[C@]2(C(=O)N3CCN(C)CC3)CC[C@]3(C)C(=CC[C@@H]4[C@@]5(C)C/C(=C/c6cccnc6)C(=O)C(C)(C)[C@@H]5CC[C@]43C)[C@H]12`: the GI50 with IGROV1 ovarian is 1.52 µM; in the experiment with MALME-3M melanoma, 1.08 µM; with MOLT-4 leukemia it was 1.92 µM; with OVCAR-3 ovarian, 0.969 µM; with OVCAR-5 ovarian, 1.55 µM; in the experiment on SF-539 CNS, 1.44 µM. Moreover, the results for the GI50 in the experiment on SK-MEL-28 melanoma, in the experiment on TK-10 renal and with U251 CNS were 1.4 µM, 1.54 µM and 0.547 µM, respectively. The TGI in the experiment on IGROV1 ovarian was determined as 3.31 µM; in the experiment on MALME-3M melanoma, 2.45 µM; in the experiment with MOLT-4 leukemia, 5.75 µM; in the experiment on OVCAR-3 ovarian it was 2.36 µM; with OVCAR-5 ovarian it was 2.91 µM; with SF-539 CNS, 2.78 µM. For the same molecule, the results for the TGI in the experiment with SK-MEL-28 melanoma, with TK-10 renal and in the experiment on U251 CNS were 2.76 µM, 3.04 µM and 1.87 µM, respectively.
For `O/N=C/c1cc2c(cc1Br)OCO2`, the TGI with IGROV1 ovarian, in the experiment on MALME-3M melanoma, in the experiment on MOLT-4 leukemia, in the experiment with OVCAR-3 ovarian, in the experiment on OVCAR-5 ovarian and in the experiment on SF-539 CNS was greater than 100 µM each time. The TGI in the experiment on TK-10 renal and with U251 CNS was greater than 100 µM each time.
Turning to `CC1CC(c2cccc3c2OCO3)=Nc2ccccc2S1` (stereo not given), the TGI with IGROV1 ovarian, in the experiment on MALME-3M melanoma, in the experiment on MOLT-4 leukemia, in the experiment on OVCAR-3 ovarian, in the experiment on OVCAR-5 ovarian and in the experiment with SF-539 CNS was greater than 100 µM throughout. The TGI in the experiment with SK-MEL-28 melanoma and with TK-10 renal was greater than 100 µM in each case.
Turning to `O=C(O)CCSCCCN1C(=O)c2ccccc2C1=O`, the TGI in the experiment with IGROV1 ovarian, in the experiment on MALME-3M melanoma, in the experiment with MOLT-4 leukemia, in the experiment on OVCAR-3 ovarian, in the experiment with OVCAR-5 ovarian and in the experiment with SF-539 CNS was greater than 100 µM in each case. Further, the TGI in the experiment on SK-MEL-28 melanoma, in the experiment on TK-10 renal and in the experiment on U251 CNS was greater than 100 µM each time.

Values taken from PubChem BioAssay (NCI).
